Assay results taken from publication PMC7688046 (ACS Pharmacology & Translational Science, 2020).

Experiments:
[1] = target: SARS-CoV-2 spike protein RBD (RBD-Fc) binding to human ACE2 (ACE2-His-Avi) (Homo sapiens, UniProt Q9BYF1); experiment: biochemical; design: species or system human ACE2 / SARS-CoV-2 spike
[2] = tested on: biotinylated rabbit IgG (Fc-protein A and streptavidin–biotin interactions); experiment: Biotin-IgG counterassay; conditions: cherry-pick hit confirmation
[3] = tested on: ACE2; conditions: at current writing; ref NCATS OpenData Portal; cited from earlier work
[4] = tested on: cytopathic effects (CPE); conditions: at current writing; ref NCATS OpenData Portal; cited from earlier work
[5] = tested on: streptavidin donor beads / biotin-BSA acceptor beads; conditions: primary counterscreen
[6] = target: RBD-Fc interaction with ACE2-His-Avi (Homo sapiens, UniProt Q9BYF1); format: binding, human ACE2 / SARS-CoV-2 spike
Sequence of RBD-Fc interaction with ACE2-His-Avi (Q9BYF1 18-740): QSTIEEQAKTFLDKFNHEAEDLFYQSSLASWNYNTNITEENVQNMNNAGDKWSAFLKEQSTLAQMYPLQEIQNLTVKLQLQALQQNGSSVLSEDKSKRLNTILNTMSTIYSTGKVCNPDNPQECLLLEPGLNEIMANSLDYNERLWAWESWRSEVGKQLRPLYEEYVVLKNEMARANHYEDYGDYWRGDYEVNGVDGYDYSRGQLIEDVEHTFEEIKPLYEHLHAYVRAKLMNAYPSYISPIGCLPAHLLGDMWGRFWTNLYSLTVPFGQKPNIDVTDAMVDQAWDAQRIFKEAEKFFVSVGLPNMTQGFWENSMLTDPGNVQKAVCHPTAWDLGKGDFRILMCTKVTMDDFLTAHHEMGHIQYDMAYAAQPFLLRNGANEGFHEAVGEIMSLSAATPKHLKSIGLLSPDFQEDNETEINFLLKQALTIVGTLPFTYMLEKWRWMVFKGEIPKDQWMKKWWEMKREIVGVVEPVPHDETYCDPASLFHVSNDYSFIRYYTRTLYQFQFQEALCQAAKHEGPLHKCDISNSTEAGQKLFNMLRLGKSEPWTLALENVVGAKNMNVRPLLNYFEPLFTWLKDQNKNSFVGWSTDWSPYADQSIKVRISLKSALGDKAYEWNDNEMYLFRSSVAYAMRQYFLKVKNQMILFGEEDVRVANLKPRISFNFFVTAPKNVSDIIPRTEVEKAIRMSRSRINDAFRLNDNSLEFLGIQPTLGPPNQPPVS

Sequence of SARS-CoV-2 spike protein RBD (RBD-Fc) binding to human ACE2 (ACE2-His-Avi) (Q9BYF1 18-740): as above

O=C(O[C@@H]1O[C@@H]2COC(=O)c3cc(O)c(O)c(O)c3-c3c(cc(O)c(O)c3O)C(=O)O[C@H]([C@H]1O)[C@@H]2O)c1cc(O)c(O)c(O)c1 [Corilagin]
IC50 [1]: 5.5 µM
activity in biotin-IgG counter assay [2]: not the biotin-IgG counter assay
activity in the ACE2 enzymatic assay [3]: weak activity
activity in blocking cytopathic effects (CPE) [4]: no activity

CC(C)(O/N=C(\C(=O)N[C@@H]1C(=O)N2C(C(=O)[O-])=C(C[n+]3ccccc3)CS[C@H]12)c1csc(N)n1)C(=O)O [ceftazidime]
ACE2–RBD binding inhibition in the primary AlphaLISA screen [1]: no significant activity
activity in the TruHits counterscreen [5]: no significant activity

CCOC(=O)[C@H](CCc1ccccc1)N[C@@H](C)C(=O)N1CCC[C@H]1C(=O)O [enalapril]
ACE2–RBD binding inhibition in the primary AlphaLISA screen [1]: none showed ACE2–RBD binding inhibition

NCCCC[C@H](N[C@@H](CCc1ccccc1)C(=O)O)C(=O)N1CCC[C@H]1C(=O)O [lisinopril]
ACE2–RBD binding inhibition in the primary AlphaLISA screen [1]: none showed ACE2–RBD binding inhibition

CCOC(=O)[C@H](CCc1ccccc1)N[C@@H](C)C(=O)N1Cc2cc(OC)c(OC)cc2C[C@H]1C(=O)O [moexipril]
ACE2–RBD binding inhibition in the primary AlphaLISA screen [1]: none showed ACE2–RBD binding inhibition

CCC(CC)COC(=O)[C@H](C)N[P@](=O)(OC[C@H]1O[C@@](C#N)(c2ccc3c(N)ncnn23)[C@H](O)[C@@H]1O)Oc1ccccc1 [remdesivir]
ACE2–RBD binding inhibition in the primary AlphaLISA screen [1]: no significant activity
activity in the TruHits counterscreen [5]: no significant activity

ACE2-His
competition for ACE2–RBD binding, AlphaLISA signal [6]: dose-dependent signal loss
